The nature of data set [1]: Compatibility test of sodium rabeprazole with additives (residual content by HPLC, visual coloring). Type of data set: physicochemical. The conditions noted are these: 1 week, cold place sample = 100%; for residual content of sodium rabeprazole, 40° C.-75% RH: 40° C. 75% relative humidity. As for the experimental part: 50 mg sodium rabeprazole and 450 mg additives shown in the table below were mixed in a mortar. The mixture was introduced into a transparent glass vial and stored in a cold place or at 60° C. or 40° C. under 75% relative humidity for 1 week and their content was determined by high performance liquid chromatography. Assuming that the content of the sample stored in the cold place is 100%, the degrees of the residual content under the respective conditions are shown in Tables 1 through 3. Further, their coloring changes were visually evaluated. The sodium rabeprazole used was amorphous in Table land crystalline in Tables 2 and 3. In Table 1, low-substituted hydroxypropyl cellulose (expressed as L-HPC) used as a disintegrating agent in addition to amorphous sodium rabeprazole was blended in the control; in Table 2, a sample further incorporating aluminum hydroxide (expressed as Al(OH) 3 in the table) i.e. an alkaline inorganic salt used as an antacid agent was used; and in Table 3, a sample incorporating polyvinyl pyrrolidone (expressed as PVP in the table) was used as a binder.

Data set [2] can be described thus: Amount of peroxide in crospovidone mixed with sodium sulfite (Japanese Pharmacopoeia test method). Type of data set: physicochemical. How it is done:
Further, 1 g crospovidone containing 201 ppm peroxide was accurately taken, and sodium sulfite (amounts: 4 levels i.e. no addition, 0.02%, 0.05% and 0.10%) was added thereto and mixed well, and the amount of the peroxide in the mixture was determined according to a test method described in the Japanese Pharmacopoeia.

[3] abbreviates: Table 1, amorphous sodium rabeprazole 50 mg + 450 mg additive.
[4] abbreviates: Table 2, crystalline sodium rabeprazole 50 mg + 450 mg additive.
[5] abbreviates: Table 3, crystalline sodium rabeprazole 50 mg + 450 mg additive.

In the case of `COCCCOc1ccnc(C[S+]([O-])c2nc3ccccc3[nH]2)c1C` (stereo not drawn) [sodium rabeprazole (amorphous), sodium rabeprazole], in data set [1] (setting [3]), the “residual content of sodium rabeprazole, 40° C.-75% RH” value is on record as 93.9% and the “residual content of sodium rabeprazole, 60° C.” value amounted to 99.1%.
For `COCCCOc1ccnc(C[S+]([O-])c2nc3ccccc3[nH]2)c1C` (stereo not drawn) [sodium rabeprazole (crystalline), sodium rabeprazole], the entries for the “residual content of sodium rabeprazole, 40° C.-75% RH” value in data set [1] (setting [4]) and in data set [1] (setting [5]) were 91.8% and 86.9%, respectively. The “residual content of sodium rabeprazole, 60° C.” value in data set [1] (setting [4]) was determined as 99.8%; in data set [1] (setting [5]), 97.3%.
For the molecule `O=S([O-])[O-].[Na+].[Na+]` [sodium sulfite], the “amount of the peroxide in the composition” value in data set [2] (0.02% sodium sulfite added to 1 g crospovidone containing 201 ppm peroxide) was determined as 184 ppm; in data set [2] (0.05% sodium sulfite added to 1 g crospovidone containing 201 ppm peroxide) it was 108 ppm; in data set [2] (0.10% sodium sulfite added to 1 g crospovidone containing 201 ppm peroxide), 0 ppm.
